From patent EP1808172A2, “Botanical extract compositions and methods of use” (The Medical Research and Education Trust, priority 2002, dated 2003)

What was measured:
Type in all cases: cell-based
LNCaP cell cycle = assay: Cell cycle measurement by DNA content flow cytometry, LNCaP; conditions: LNCaP cells, exposed 24-48 hours
Description: (§1) The cells were washed with phosphate buffered saline (PBS) and fixed in ice-cold 70% ethanol. Aliquots of fixed cells were rehydrated in PBS and stained with 1.0 microgram/milliliter DAPI (4,6-diamidino-2-phenylindole from Eastman Kodak, Rochester, NY), and dissolved in 10 millimolar piperazine-NN-bis-2-ethane-sulfonic acid buffer (Calbiochem, La Jolla, CA) containing 100 millimolar NaCl, 2mM MgCl2 and 0,1% Triton X-100 (Sigma) at pH 6.8 as previously described by Halicka et al. (H. D. Halicka, B. Ardelt, G. Juan, A. Mittelman, S. Chen, F. Traganos and Z. Darzynkiewicz, "Apoptosis and Cell Cycle Effects Induced by Extracts of the Chinese Herbal Preparation of PC SPES", International J. of Oncology (1997), 11: 437-448).
(§2) The cellular DNA content was measured with an ELITE ESP flow cytometer (Coulter Inc., Fl.) using UV laser illumination. The multicycle program was used to deconvolute the DNA frequency histograms to estimate the frequency of cells in different phases of the cell cycle.

hERβ = target: T1, hERβ (Homo sapiens, UniProt Q92731); assay: ERE-LUC reporter gene activation in transfected HEK 293 cells, ER beta; conditions: 0 to 9 µg/ml, 20 hours
T1 construct: expressed in transfected cells; host or cells: HEK 293 cells (ATCC CRL-1573)
T1 sequence (Q92731 whole entry): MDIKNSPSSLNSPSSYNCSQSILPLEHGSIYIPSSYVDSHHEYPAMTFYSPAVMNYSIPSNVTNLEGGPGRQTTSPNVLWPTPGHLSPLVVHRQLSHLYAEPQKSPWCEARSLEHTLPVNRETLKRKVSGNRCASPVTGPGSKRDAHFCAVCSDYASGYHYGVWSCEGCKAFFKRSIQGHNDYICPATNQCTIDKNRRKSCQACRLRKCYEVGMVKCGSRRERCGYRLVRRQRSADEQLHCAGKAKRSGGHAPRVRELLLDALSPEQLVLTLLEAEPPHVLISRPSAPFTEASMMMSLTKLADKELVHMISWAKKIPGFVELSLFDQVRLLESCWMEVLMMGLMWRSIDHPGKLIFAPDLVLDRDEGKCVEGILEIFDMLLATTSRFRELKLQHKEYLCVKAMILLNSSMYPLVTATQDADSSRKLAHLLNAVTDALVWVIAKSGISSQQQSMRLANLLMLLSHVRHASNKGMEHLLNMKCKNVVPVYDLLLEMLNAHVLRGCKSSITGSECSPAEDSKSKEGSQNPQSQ
Description: (§3) HEK 293 cells (ATCC CRL-1573) were transfected with an expression vector for hERα and hERβ respectively, and an ERE-LUC reporter gene (plus a TK-LUC reporter for normalization) following the protocol of Yoon et al ("Differential activation of wild-type and variant forms of estrogen receptor α by synthetic and natural estrogenic compounds using a promoter containing three estrogen-responsive elements", J. Steroid Biochem. & Molecular Biology (2000), 28: pages 25-32).

DU-145 cell cycle = assay: Cell cycle measurement by DNA content flow cytometry, DU-145; conditions: DU-145 cells, protocol of Example 3
Description: as §1, §2
A prolongation in the G2M phase leads to the suppression of DU-145 cell proliferation.

hERα = target: T2, hERα (Homo sapiens, UniProt P03372); assay: ERE-LUC reporter gene activation in transfected HEK 293 cells, ER alpha; conditions: 0 to 9 µg/ml, 20 hours
T2 construct: expressed in transfected cells; host or cells: HEK 293 cells (ATCC CRL-1573)
T2 sequence (P03372 whole entry): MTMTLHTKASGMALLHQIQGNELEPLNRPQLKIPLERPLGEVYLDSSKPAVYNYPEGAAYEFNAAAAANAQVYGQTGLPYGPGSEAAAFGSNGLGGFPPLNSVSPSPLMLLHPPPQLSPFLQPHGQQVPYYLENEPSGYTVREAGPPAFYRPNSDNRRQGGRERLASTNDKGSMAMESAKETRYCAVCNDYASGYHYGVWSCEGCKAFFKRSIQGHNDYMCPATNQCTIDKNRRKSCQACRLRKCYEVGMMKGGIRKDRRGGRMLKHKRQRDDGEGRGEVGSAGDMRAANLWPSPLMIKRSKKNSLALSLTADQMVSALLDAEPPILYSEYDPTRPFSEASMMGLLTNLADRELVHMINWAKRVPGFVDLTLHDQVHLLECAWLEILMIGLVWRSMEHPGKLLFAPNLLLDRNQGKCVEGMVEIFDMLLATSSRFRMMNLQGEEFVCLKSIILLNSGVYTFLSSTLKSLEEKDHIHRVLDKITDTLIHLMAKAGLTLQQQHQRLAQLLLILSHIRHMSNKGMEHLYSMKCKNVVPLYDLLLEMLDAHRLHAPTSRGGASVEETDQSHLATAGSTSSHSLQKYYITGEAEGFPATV
Description: as §3

| Structure (SMILES) | effect on G1, S, and G2M phases of the LNCaP cell cycle (LNCaP cell cycle) | ERβ-Luc reporter gene activation (hERβ) | effect on the DU-145 cell cycle (DU-145 cell cycle) | ERα-Luc reporter gene activation (hERα) |
| --- | --- | --- | --- | --- |
| COc1c(O)cc(O)c2c(=O)cc(-c3ccccc3)oc12 [Wogonin, 5,7-dihydroxy-8-methoxy-flavone] | induced a G1 phase arrest | activated | prolonged the G2M phase | activated |
| O=C(/C=C/c1ccc(O)cc1)c1ccc(O)cc1O [isoliquiritigenin, 2',4,4'-trihydroxychalcone] | induced a G2M phase arrest | activated |  | activated |
